How the values were obtained:
hERG potassium channel = biological target: T1, hERG potassium channel (Homo sapiens, UniProt Q12809); assay: hERG test, patch clamp on HEK-293 cells stably expressing hERG potassium channel; type: cell-based; conditions: HEK-293 cell line stably expressing hERG, read-out: IC50 (μM) of inhibitory effect on hERG potassium channel current
T1 construct: host or cells: HEK-293 stably expressing hERG
Description: Test object: influences of compounds on an hERG potassium channel current were tested by a full-automatic patch clamp method.
• (1) An HEK-293 cell line stably expressing an hERG potassium channel was adopted, and hERG potassium channel cells were purchased from Creacell Company. • (2) The HEK-293 cell line stably expressing the hERG potassium channel was cultured in a DMEM culture medium containing 10% fetal bovine serum and 0.8 mg/mL G418 at 37° C. under a carbon dioxide concentration of 5%. • (3) Cell passage: the old culture medium was removed, and the cells were washed once with PBS, then added with 1 mL of TrypLE™ Express solution, and incubated at 37° C. for about 0.5 minutes. When the cells were separated from a dish bottom, about 5 mL of complete culture medium preheated at 37° C. was added. A cell suspension was gently blown with a straw to separate the aggregated cells. The cell suspension was transferred to a sterile centrifuge tube and centrifuged at 1000 rpm for 5 minutes to collect the cells. In amplification or maintenance of culture, the cells were inoculated into a 6 cm cell culture dish, and the number of cells inoculated into each cell culture dish was 2.5×10^5 cells (final volume: 5 mL). In order to maintain an electrophysiological activity of cells, a cell density should not exceed 80%. • (4) In patch clamp detection, before the test, the cells were separated by TrypLE™ Express, and 4×10^3 cells were spread on a cover slip and cultured in a 24-well plate (final volume: 500 μL). After 18 hours, the test was carried out for detection. Data analysis:
A current after an effect of each drug concentration and a blank control current
were standardized first, and then an inhibition rate
corresponding to each drug concentration was calculated. A mean number and a standard error were calculated for each concentration, and a semi-inhibitory concentration of each compound was calculated by the following equation: […]
A dosage-dependent effect was nonlinearly fitted by the above equation, wherein C represented a concentration of a test sample, IC50 represented a semi-inhibitory concentration, and h represented a Hill coefficient. Curve fitting and IC50 calculation were completed by IGOR software.

GLP1R = GLP1R (Homo sapiens, UniProt P43220); assay: Agonist activity on GLP1R/CRE-LUC HEK293 cells (luciferase reporter, ONE-Glo); type: cell-based; conditions: for EC50: GLP1R/CRE-LUC HEK293 cells, 6 hours incubation, chemiluminescence signal; for activity compared with comparative example compounds PF-06882961, DB02, DB03 and DB06: from Table 1, also much higher than DB04 and DB05
Description: Logarithmically growing GLP1R/CRE-LUC HEK293 cells (purchased from Nanjing Cobioer) were digested, the digested cells were re-suspended in a DMEM+10% FBS culture medium, and a cell density was adjusted to be 3.5*10^5/mL. The cell solution was added into a 96-well cell culture plate by 100 µL/well, and the plate was cultured overnight in an incubator (37° C., 5% CO2).
A compound was dissolved with DMSO to prepare a storage solution at an initial concentration of 10 mM, an initial concentration of the small molecular compound was 0.2 mM, and the compound was diluted by 3 times and 10 points were diluted, while the 11th point was DMSO. Another 96-well plate was taken, added with 95 μL of cell culture solution (DMEM+10% FBS) in each well, then added with 5 μL of to-be-tested samples at different concentrations in each well, mixed evenly, and then added with 11 μL of to-be-tested samples at different concentrations in each well of the cell culture plate, and each sample had two wells. The culture plate was incubated in an incubator for 6 hours (37° C., […]). The 96-well cell culture plate was taken out, added with 100 μL of ONE-Glo™ reagent in each well, and incubated at room temperature for 10 minutes, and a chemiluminescence signal value was measured with an enzyme-labeled instrument. Data were processed and analyzed by Microsoft Excel and Graphpad Prism6 to obtain an EC50 value of the compound.

hGLP1R mice = assay: Glucose tolerance test in hGLP1R mice after single oral administration; type: in vivo; conditions: 1 mg/kg oral once; for onset of blood glucose reduction compared with comparative example compound DB03 / blood glucose reduction effect compared with comparative example compound DB03: FIG. 3 and FIG. 4; for blood glucose reduction effect compared with PF-06882961: glucose 2 g/kg i.p. 60 minutes later
Description: Genetically engineered hGLP1R mice, male, purchased from Biocytogen Jiangsu Gene Biotechnology Co., Ltd., were fasted overnight before the glucose tolerance test (IPTGG), without water deprivation. A solvent or corresponding compound was orally administered once, a glucose solution (2 g/kg) was intraperitoneally injected 60 minutes after administration, and a blood glucose value before administration of glucose (equivalent to a blood glucose value of 0 minute) and blood glucose values 15 minutes, 30 minutes, 60 minutes and 120 minutes after administration of glucose were measured. The solvent was 5% DMSO+40% PEG400+55% physiological saline, and a dosage of the compound was 1 mg/kg (n=3).

[1] = Pharmacokinetic studies in SD rats; type: in vivo; conditions: Sprague-Dawley (SD), rat, plasma
[2] = blood glucose curves and AUC (0 to 120 minutes)

T1 sequence (Q12809 whole entry): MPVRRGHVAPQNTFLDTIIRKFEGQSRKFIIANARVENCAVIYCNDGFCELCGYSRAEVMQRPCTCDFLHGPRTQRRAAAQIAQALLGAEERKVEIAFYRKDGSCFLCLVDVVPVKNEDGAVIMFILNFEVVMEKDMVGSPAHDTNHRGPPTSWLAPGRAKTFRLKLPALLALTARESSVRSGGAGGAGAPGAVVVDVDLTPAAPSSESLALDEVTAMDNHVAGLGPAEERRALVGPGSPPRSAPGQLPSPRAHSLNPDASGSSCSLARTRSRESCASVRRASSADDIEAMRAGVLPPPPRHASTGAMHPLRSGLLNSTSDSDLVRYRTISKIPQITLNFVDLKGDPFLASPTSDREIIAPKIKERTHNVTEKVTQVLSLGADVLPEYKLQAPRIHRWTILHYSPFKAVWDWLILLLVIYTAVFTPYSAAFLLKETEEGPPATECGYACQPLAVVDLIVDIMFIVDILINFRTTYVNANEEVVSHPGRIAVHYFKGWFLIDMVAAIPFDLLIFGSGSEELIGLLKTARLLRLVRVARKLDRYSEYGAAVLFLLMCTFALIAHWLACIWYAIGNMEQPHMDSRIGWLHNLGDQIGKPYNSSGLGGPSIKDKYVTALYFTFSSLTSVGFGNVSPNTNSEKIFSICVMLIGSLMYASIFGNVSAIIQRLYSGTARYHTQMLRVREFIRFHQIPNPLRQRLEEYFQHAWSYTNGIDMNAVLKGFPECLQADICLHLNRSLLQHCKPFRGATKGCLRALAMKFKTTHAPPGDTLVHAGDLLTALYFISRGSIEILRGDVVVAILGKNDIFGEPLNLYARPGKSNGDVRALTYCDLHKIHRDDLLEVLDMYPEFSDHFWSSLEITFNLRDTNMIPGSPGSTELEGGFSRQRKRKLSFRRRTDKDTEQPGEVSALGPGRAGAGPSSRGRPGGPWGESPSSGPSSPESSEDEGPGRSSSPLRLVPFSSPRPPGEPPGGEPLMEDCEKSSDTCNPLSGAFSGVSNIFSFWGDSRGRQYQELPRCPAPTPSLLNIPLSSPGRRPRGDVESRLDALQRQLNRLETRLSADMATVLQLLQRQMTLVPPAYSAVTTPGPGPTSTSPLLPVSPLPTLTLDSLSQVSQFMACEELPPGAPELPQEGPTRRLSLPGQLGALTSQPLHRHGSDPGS
Sequence of GLP1R (P43220 24-463): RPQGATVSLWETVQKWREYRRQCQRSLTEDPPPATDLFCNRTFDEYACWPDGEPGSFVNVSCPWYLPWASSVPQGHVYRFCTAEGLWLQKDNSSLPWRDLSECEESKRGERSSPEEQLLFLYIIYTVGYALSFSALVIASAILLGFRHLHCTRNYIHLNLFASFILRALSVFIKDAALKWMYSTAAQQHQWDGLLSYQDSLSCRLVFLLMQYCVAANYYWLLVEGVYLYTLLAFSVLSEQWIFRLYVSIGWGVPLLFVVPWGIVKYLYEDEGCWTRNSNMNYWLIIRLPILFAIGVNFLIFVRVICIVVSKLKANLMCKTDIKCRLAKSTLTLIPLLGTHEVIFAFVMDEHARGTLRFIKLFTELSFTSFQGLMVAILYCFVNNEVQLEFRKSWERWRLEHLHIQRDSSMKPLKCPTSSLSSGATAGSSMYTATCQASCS

SMILES	EC50 (GLP1R)	activity compared with comparative example compounds PF-06882961, DB02, DB03 and DB06 (GLP1R)	half-life [1]	IC50 (hERG potassium channel)	onset of blood glucose reduction compared with comparative example compound DB05 (hGLP1R mice; FIG. 1 and FIG. 2)	onset of blood glucose reduction compared with comparative example compound DB03 (hGLP1R mice)	blood glucose reduction effect compared with PF-06882961 (hGLP1R mice; [2])	blood glucose reduction effect compared with comparative example compound DB05 (hGLP1R mice; blood glucose curves and AUC (0 to 120 minutes), FIG. 1 and FIG. 2)	blood glucose reduction effect compared with comparative example compound DB03 (hGLP1R mice; [2])
O=C(O)c1ccc2nc(CC3CC=C(c4cccc(OCc5ccc(Cl)c6ccoc56)n4)CC3)n(C[C@@H]3CCO3)c2c1 (stereo partly shown) [Compound 7]	0.0209 µM			> 30 µM					
O=C(O)c1ccc2nc(Cc3ccc(-c4cccc(OCc5ccc(Cl)c6ccoc56)n4)cc3F)n(C[C@@H]3CCO3)c2c1 [Compound 17]				> 30 µM	took effect more quickly	took effect more quickly	significantly better	significantly better	absolutely better
O=C(O)c1ccc2nc(Cc3ccc(-c4cccc(OCc5ccc(Cl)c6cc(F)oc56)n4)cc3F)n(C[C@@H]3CCO3)c2c1 [Compound 21]	0.00096 µM	higher	6 to 10 h	> 30 µM			significantly better		
O=C(O)c1ccc2nc(Cc3ccc(-c4cccc(OCc5ccc(F)c6ccoc56)n4)cc3F)n(C[C@@H]3CCO3)c2c1 [Compound 87]				> 30 µM					
O=C(O)c1ccc2nc(Cc3ccc(-c4cccc(OCc5ccc(Cl)c6cc(Cl)oc56)n4)cc3F)n(C[C@@H]3CCO3)c2c1 [Compound 99]			6 to 10 h	> 30 µM			significantly better		
O=C(O)c1ccc2nc(Cc3ccc(-c4cccc(OCc5ccc(Cl)cc5F)n4)cc3F)n(C[C@@H]3CCO3)c2c1 [DB03, reference compound]			2.94 h	> 10 µM					
N#Cc1ccc(COc2cccc(C3CCN(Cc4nc5ccc(C(=O)O)cc5n4C[C@@H]4CCO4)CC3)n2)c(F)c1 [PF-06882961, reference compound]			3.13 h	9.35 µM					

Second part, led by results:

EC50 (GLP1R)	activity compared with comparative example compounds PF-06882961, DB02, DB03 and DB06 (GLP1R)	half-life [1]	SMILES	IC50 (hERG potassium channel)	onset of blood glucose reduction compared with comparative example compound DB05 (hGLP1R mice; FIG. 1 and FIG. 2)	onset of blood glucose reduction compared with comparative example compound DB03 (hGLP1R mice)	blood glucose reduction effect compared with PF-06882961 (hGLP1R mice; [2])	blood glucose reduction effect compared with comparative example compound DB05 (hGLP1R mice; blood glucose curves and AUC (0 to 120 minutes), FIG. 1 and FIG. 2)	blood glucose reduction effect compared with comparative example compound DB03 (hGLP1R mice; [2])
0.00289 µM	higher	6 to 10 h	O=C(O)c1ccc2nc(Cc3ccc(-c4ccc(F)c(OCc5ccc(Cl)c6ccoc56)n4)cc3F)n(C[C@@H]3CCO3)c2c1 [Compound 93]	> 30 µM		took effect more quickly	significantly better		absolutely better
0.00089 µM	higher	6 to 10 h	O=C(O)c1ccc2nc(Cc3ccc(-c4ccc(F)c(OCc5ccc(Cl)c6cc(F)oc56)n4)cc3F)n(C[C@@H]3CCO3)c2c1 [Compound 94]	> 30 µM			significantly better		
0.00202 µM	higher	6 to 10 h	O=C(O)c1ccc2nc(Cc3ccc(-c4ccc(F)c(OCc5ccc(Cl)c6cc(Cl)oc56)n4)cc3F)n(C[C@@H]3CCO3)c2c1 [Compound 100]	> 30 µM		took effect more quickly	significantly better		absolutely better
0.00176 µM	higher		O=C(O)c1ccc2nc(Cc3ccc(-c4ccc(F)c(OCc5ccc(F)c6cc(Cl)oc56)n4)cc3F)n(C[C@@H]3CCO3)c2c1 [Compound 104]	> 30 µM					
